# Source: EP0729465B1, “PYRONE DERIVATIVES AS PROTEASE INHIBITORS AND ANTIVIRAL AGENTS” (PARKE, DAVIS & COMPANY, priority 1993, dated 1995)
# pEC50, pIC50: −log10 of the molar value.
# Target: T1, HIV-I Protease (Human immunodeficiency virus type 1 group M subtype B, UniProt P04585)
# T1 construct: HIV-I Protease: The enzyme is obtained from Bachem Bioscience Inc; purchased Bachem Bioscience Inc
# Experiment: HIV protease inhibition (hydrolysis of undecapeptide substrate, HPLC readout)
# Type: biochemical
# Settings: 40 µM substrate, pH 4.7, 37 °C, 5 minutes; read-out: 50% Inhibition Concentration (Averaged)
# Description: • DTT Buffer: 1.0 mM dithiothreitol (DTT) was prepared fresh daily in 0.1% polyethylene glycol (mw 8000) 80 mM NaOAc, 160 mM NaCl, 1.0 mM EDTA, and brought to pH 4.7 with HCl. • HIV-I Protease: The enzyme is obtained from Bachem Bioscience Inc. The undiluted enzyme is thawed from -80 °C and diluted 50-fold with DTT buffer. The solution is always kept at 0 °C on ice water and used in the experiment within 20 minutes after thawing. • Enzyme Substrate: Substrate III from Bachem Bioscience Inc. is the undecapeptide H-His-Lys-Ala-Arg-Val-Leu-p-Nitrophenylalanine-Glu-Ala-Norleucine-ser-NH2 (> 97 % purity). A 200. µM stock solution in DTT buffer is prepared and stored on ice. Substrate solution is prepared fresh daily. • Test Compound: 10 mM inhibitor (I) in dimethyl sulfoxide (DMSO) is diluted to 200 µM with DTT buffer. From the 200 µM stock solution is made a 10 µM stock solution with 2% DMSO in DTT buffer. The two inhibitor solutions are used to make final [I] = 100, 50, 20, 10, 5, 2, 1, 0.5 and 0 µM with 2% DMSO in DTT buffer in each reaction well (total inhibitor volume of 50 µl).
# To each reaction well is added 20 µl of substrate (final concentration of 40 µM), 50 µl of inhibitor (at a concentration such that final dilution will produce the test concentration) and 20 µl of DTT buffer. The reaction plate (96 wells) is incubated at 37 °C for at least 5 minutes.
# 10 µl of the diluted protease is added to the reaction well while the reaction plate is shaking. Once shaken for 10 seconds, the plate is returned to the heating block at 37 °C. (Final reaction volume = 100 µl.)
# The reaction is incubated for 5 minutes at 37 °C. The reaction is stopped by placing the reaction plate on the shaker and adding 20 µl of 10% trifluoroacetic acid (TFA) and shaking for 10 seconds. The amount of proteolysis is then determined by separation of noncleaved substrate and two cleaved products with reverse-phase HPLC, while measuring absorbance at 220 nm to determine the relative peak areas of the three components. The relative peak areas are used to calculate % conversion to product as a function of inhibitor concentration. The data is plotted as % Control (the ratio of % conversion in the presence and absence of inhibitor x 100) versus inhibitor concentration and fit with the equation Y= 100/1+(X/IC50)^A, where IC50 is the inhibitor concentration at 50% inhibition and A is the slope of the inhibition curve.
row,SMILES,pIC50
1,"O=c1oc(-c2cccc(-c3ccccc3)c2)cc(O)c1Sc1ccc2ccccc2c1 [Example 168, 6-(1,1'-Biphenyl-3-yl)-4-hydroxy-3-[(naphthalen-2-yl)thio]-2H-pyran-2-one]",6.39
2,O=c1oc(-c2ccccc2)cc(O)c1SCc1ccccc1 [Example 8],5.77
3,"O=c1oc(-c2cccc(O)c2)cc(O)c1SCc1ccccc1 [Example 23, 4-Hydroxy-6-(3-hydroxyphenyl)-3-[(phenylmethyl)thio]-2H-pyran-2-one]",5.92
4,"O=c1oc(-c2cccc(Cl)c2)cc(O)c1SCc1ccccc1 [Example 1, 6-(3-Chlorophenyl)-4-hydroxy-3-[(phenylmethyl)thio]-2H-pyran-2-one]",6.33
5,"O=c1oc(-c2ccc(OCc3ccccc3)cc2)cc(O)c1SCCc1ccccc1 [Example 26, 4-Hydroxy-3-[(2-phenylethyl)thio]-6-[4-(phenylmethoxy)phenyl] 2-2H-pyran-2-one]",6.48
6,"O=c1oc(-c2ccccc2)cc(O)c1C(SC1CCCC1)C1CCCC1 (racemic) [Example 151, 3-[Cyclopentyl(cyclopentylthio)methyl]-4-hydroxy-6-phenyl-2H-pyran-2-one]",6.64
7,"O=c1oc(-c2ccccc2)cc(O)c1C(Sc1ccccc1)c1ccccc1 (racemic) [Example 31, 4-Hydroxy-6-phenyl-3-[phenyl(phenylthio)methyl]-2H-pyran-2-one]",6.10
8,"COc1ccc(-c2cc(O)c(SCc3ccccc3)c(=O)o2)cc1C [Example 46, 4-Hydroxy-6-(4-methoxy-3-methylphenyl)-3-[(phenylmethyl)thio]-2H-pyran-2-one]",6.15
9,"CC(C)c1ccccc1Sc1c(O)cc(-c2ccc(OCc3cccnc3)cc2)oc1=O [Example 157, 4-Hydroxy-3-[(2-isopropylphenyl)thio]-6-[4-(pyridin-3-ylmethoxy)phenyl]-2H-pyran-2-one]",7.17
10,"CC(C)CC(SC1CCCC1)c1c(O)cc(-c2ccccc2)oc1=O (racemic) [Example 96, 3-[1-(Cyclopentylthio)-3-methylbutyl]-4-hydroxy-6-phenyl-2H-pyran-2-one]",7.15
11,"O=c1oc(-c2ccccc2)cc(O)c1SC/C=C/c1ccccc1 [Example 25, 4-Hydroxy-6-phenyl-3-[3-(phenyl-2-propenyl)thio]-2H-pyran-2-one, (E)-]",5.72
12,"O=c1oc(-c2cccc(Cl)c2)cc(O)c1SCCc1ccccc1 [Example 6, 6-(3-Chlorophenyl)-4-hydroxy-3-[(2-phenylethyl)thio]-2H-pyran-2-one]",6.40
13,"CCOC(=O)COc1ccc(-c2cc(O)c(SCCc3ccccc3)c(=O)o2)cc1 [Example 60, 4-[4-Hydroxy-2-oxo-3-[(2-phenylethyl)thio]-2H-pyran-6-yl]phenoxy acetic acid ethyl eater]",6.21
14,"Cc1cccc(-c2cc(O)c(SCc3ccccc3)c(=O)o2)c1 [Example 42, 4-Hydroxy-6-(3-methylphenyl)-3-[(phenylmethyl)thio]-2H-pyran-2-one]",6.07
15,"O=c1oc(-c2ccccc2)cc(O)c1C(CC1CC1)SCc1ccccc1 (racemic) [Example 119, 3-[2-Cyclopropyl-1-[(phenylmethyl)thio]ethyl]-4-hydroxy-6-phenyl-2H-pyran-2-one]",7.22
16,"O=c1oc(-c2ccc(O)cc2)cc(O)c1SCc1ccccc1 [Example 15, 4-Hydroxy-6-(4-hydroxyphenyl)-3-[(phenylmethyl)thio]-2H-pyran-2-one]",6.16

row,SMILES,pIC50
1,"Cc1cc(C)cc(-c2cc(O)c(SCc3ccccc3)c(=O)o2)c1 [Example 56, 6-(3,5-Dimethylphenyl)-4-hydroxy-3-[(phenylmethyl)-thio]-2H-pyran-2-one]",6.89
2,"O=c1oc(-c2ccc(Cl)c(Cl)c2)cc(O)c1SCc1ccccc1 [Example 3, 6-(3,4-Dichlorophenyl)-4-hydroxy-3-[(phenylmethyl)thio]-2H-pyran-2-one]",6.00
3,"COc1ccccc1COc1ccc(-c2cc(O)c(SCCc3ccccc3)c(=O)o2)cc1 [Example 54, 4-Hydroxy-6-[4-[(2-methoxyphenyl)methoxy]phenyl]-3-[(2-phenylethyl)thio]-2H-pyran-2-one]",6.35
4,"CC(C)CC(SC1CCCCC1)c1c(O)cc(-c2ccc3c(c2)OCCO3)oc1=O (racemic) [Example 115, 3-[1-(Cyclohexylthio)-3-methylbutyl]-6-(2,3-dihydro-1,4-benzodioxin-6-yl)4-hydroxy-2H-pyran-2-one]",6.70
5,"COc1cccc(-c2cc(O)c(SCc3ccccc3)c(=O)o2)c1 [Example 4, 4-Hydroxy-6-(3-methoxyphenyl)-3-[(phenylmethyl)thio]-2H-pyran-2-one]",6.05
6,"O=c1oc(-c2ccc(O)cc2)cc(O)c1SCCc1ccccc1 [Example 24, 4-Hydroxy-6-(4-hydroxyphenyl)-3-[(phenylethyl)thio]-2H-pyran-2-one]",6.30
7,"Cc1cc(-c2cc(O)c(SCc3ccccc3)c(=O)o2)cc(C)c1O [Example 99, 4-Hydroxy-6-(4-hydroxy-3,5-dimethylphenyl)-3-[(phenylmethyl)thio]-2H-pyran-2-one]",6.62
8,"O=c1oc(-c2cccc(OCCc3ccccc3)c2)cc(O)c1SCCc1ccccc1 [Example 30, 4-Hydroxy-6-[3-(2-phenylethoxy)phenyl]-3-[(2-phenyl-ethyl)thio]-2H-pyran-2-one]",5.71
9,"O=c1oc(-c2ccccc2)cc(O)c1SCCOc1ccccc1 [Example 20, 4-Hydroxy-3-[(2-phenoxyethyl)thio]-6-phenyl-2H-pyran-2-one]",5.77
10,"O=c1oc(-c2cccc(OCc3ccccc3)c2)cc(O)c1SCCc1ccccc1 [Example 39, 4-Hydroxy-3-[(2-phenylethyl)thio]-6-[3-(phenylmethoxy)phenyl]-2H-pyran-2-one]",6.12
11,"Cc1cc(C)cc(-c2cc(O)c(Sc3ccccc3)c(=O)o2)c1 [Example 148, 6-(3,5-Dimethylphenyl)-4-hydroxy-3-(phenylthio)-2H-pyran-2-one]",6.20
12,"O=c1oc(-c2ccc(Oc3ccccc3)cc2)cc(O)c1SCCc1ccccc1 [Example 57, 4-Hydroxy-6-(4-phenoxyphenyl)-3-[(2-phenylethyl)thio]-2H-pyran-2-one]",5.72
13,"O=c1oc(-c2ccc3c(c2)OCO3)cc(O)c1SCc1ccccc1 [Example 50, 6-(1,3-Benzodioxol-5-yl)-4-hydroxy-3-[(phenylmethyl)thio]-2H-pyran-2-one]",6.22
14,"O=C(O)COc1ccc(-c2cc(O)c(SCCc3ccccc3)c(=O)o2)cc1 [Example 63, 4-[4-Hydroxy-2-oxo-3-[(2-phenylethyl)thio]-2H-pyran-6-yl]phenoxyacetic acid]",6.85
15,"O=c1oc(-c2ccc(OCc3ccccn3)cc2)cc(O)c1SCCc1ccccc1 [Example 59, 4-Hydroxy-3-[(2-phenylethyl)thio]-6-[4-(2-pyridinylmethoxy)phenyl]-2H-pyran-2-one]",6.11

# Same assay, conditions: read-out: 50% Inhibition Concentration (Averaged)
row,SMILES,pIC50
1,"O=c1oc(-c2ccccc2)cc(O)c1C(CC1CC1)SC1CCCC1 (racemic) [Example 149, 3-[1-[Cyclopentylthio]-2-cyclopropylethyl]-4-hydroxy-6-phenyl-2H-pyran-2-one]",7.26

# System: HIV-1iiib
# Experiment: Anti-HIV-1 activity, acute infection of H9 cells
# Type: cell-based
# Settings: Human immunodeficiency virus 1; H9 cell line infected with HIV-1iiib; reverse transcriptase assay at 4 and 7 days post infection; read-out: Concentration for 50% Protection
# Description: Using the general methods of Pauwels et al., (J. Virol. Methods, 16, 171-185, 1987) and Mann et al. (AIDS Research and Human Retroviruses, 253-255, 1989) anti-viral assays of acute HIV-1 infection were performed in the H9 cell line. Cultures were batch infected in 1 ml of RPM1 1640 media/10% fetal calf serum containing 10^7 cells and 10^5 infectious doses of HIV-1iiib for an effective multiplicity of infection of 0.01. After 2 hours of viral absorption, cells were washed once and plated in 96-well microtiter plates at a density of 10^4 cells per well. Test compounds were added to produce the desired concentration of drug and 0.2% DMSO in a final volume of 200 µl. Uninfected parallel cultures were maintained for XTT cytotoxicity assay at 7 days post infection. Cultures were tested for viral replication by reverse transcriptase assay at 4 and 7 days post infection.
row,SMILES,pEC50
1,"O=c1oc(-c2ccc(OCc3ccccc3)cc2)cc(O)c1SCCc1ccccc1 [Example 26, 4-Hydroxy-3-[(2-phenylethyl)thio]-6-[4-(phenylmethoxy)phenyl] 2-2H-pyran-2-one]",4.77
2,"O=c1oc(-c2ccccc2)cc(O)c1C(SC1CCCC1)C1CCCC1 (racemic) [Example 151, 3-[Cyclopentyl(cyclopentylthio)methyl]-4-hydroxy-6-phenyl-2H-pyran-2-one]",4.85
3,"CC(C)c1ccccc1Sc1c(O)cc(-c2ccc(OCc3cccnc3)cc2)oc1=O [Example 157, 4-Hydroxy-3-[(2-isopropylphenyl)thio]-6-[4-(pyridin-3-ylmethoxy)phenyl]-2H-pyran-2-one]",6.19
4,"Cc1cc(C)cc(-c2cc(O)c(Sc3ccccc3C(C)C)c(=O)o2)c1 [Example 154, 6-(3,5-Dimethylphenyl)-4-hydroxy-3-[(2-isopropylphenyl)-thio]-2H-pyran-2-one]",4.51
5,"Cc1cc(C)cc(-c2cc(O)c(SCc3ccccc3)c(=O)o2)c1 [Example 56, 6-(3,5-Dimethylphenyl)-4-hydroxy-3-[(phenylmethyl)-thio]-2H-pyran-2-one]",4.54
